{"source": "PubChem BioAssay AID1259409", "about": "(Chemical Carcinogenesis Research Information System (CCRIS), 2018)", "origin": "cited, not measured here", "system": "rodent chemically induced tumor inhibition, incidence and multiplicity", "assay": "CCRIS tumor inhibitor studies", "conditions": "Route [Inhibitor]: ORAL, Species: RAT, Strain/Sex: F344/MALE; for outcome: Dose [Carcinogen]: 0.1% IN DRINKING WATER FOR 1 WK (STUDY DURATION: 32 WK)"}
{"compound": "COc1cc(/C=C/C(=O)O[C@H]2CC[C@]34C[C@]35CC[C@]3(C)[C@@H]([C@H](C)CCC=C(C)C)CC[C@@]3(C)[C@@H]5CC[C@H]4C2(C)C)ccc1O", "values": [{"measurement": "outcome", "setting": "Carcinogen: 2,2'-DIHYDROXY-DI-N-PROPYLNITROSAMINE [621-64-7], Dose [Inhibitor]: 0.04% IN DIET FOR 30 WK BEGINNING 1 WK POST LAST CARCINOGEN DOSE (STUDY DURATION: 32 WK), Target Tissue: Type of Lesion: LUNG: CARCINOMA, Promoter: NONE", "result": "0/20 (0%), 0/20 (0%), 0%, not significant"}, {"measurement": "outcome", "setting": "Carcinogen: 2,2'-DIHYDROXY-DI-N-PROPYLNITROSAMINE [621-64-7], Dose [Inhibitor]: 0.2% IN DIET FOR 30 WK BEGINNING 1 WK POST LAST CARCINOGEN DOSE (STUDY DURATION: 32 WK), Target Tissue: Type of Lesion: LUNG: CARCINOMA, Promoter: NONE", "result": "0/20 (0%), 2/20 (10%), -100%, not significant"}, {"measurement": "outcome", "setting": "Carcinogen: 2,2'-DIHYDROXY-DI-N-PROPYLNITROSAMINE [621-64-7], Dose [Inhibitor]: 1% IN DIET FOR 30 WK BEGINNING 1 WK POST LAST CARCINOGEN DOSE (STUDY DURATION: 32 WK), Target Tissue: Type of Lesion: LUNG: CARCINOMA, Promoter: NONE", "result": "0/20 (0%), 10/20 (50%), -100%, p<0.001"}, {"measurement": "tumour outcome (control, treated, inhibition, significance)", "setting": "Carcinogen: 2,2'-DIHYDROXY-DI-N-PROPYLNITROSAMINE [621-64-7], N-ETHYL-N-HYDROXYETHYLNIATROSAMINE [13147-25-6], 3,2'-DIMETHYL-4-AMINO, Carcinogen: 2,2'-DIHYDROXY-DI-N-PROPYLNITROSAMINE [621-64-7], N-ETHYL-N-HYDROXYETHYLNIATROSAMINE [13147-25-6], 3,2'-DIMETHYL-4-AMINO, Dose [Inhibitor]: 1% IN DIET FOR 32 WK BEGINNING 1 WK POST LAST CARCINOGEN DOSE (STUDY DURATION: 32 WK), Target Tissue: Type of Lesion: LIVER: ADENOMA, Dose [Carcinogen]: 1000 MG/KG BW DHPN IP 2X/3 WK, 1500 MG/KG BW EHEN IP 2X/3 WK, 75 MG/KG BW DMAB SC 3X/3 WK;, Dose [Carcinogen]: 1000 MG/KG BW DHPN IP 2X/3 WK, 1500 MG/KG BW EHEN IP 2X/3 WK, 75 MG/KG BW DMAB SC 3X/3 WK;, Promoter: NONE", "result": "9/14 (64%), 5/13 (38%), 41%, p<0.05"}, {"measurement": "tumour outcome (control, treated, inhibition, significance)", "setting": "Carcinogen: 2,2'-DIHYDROXY-DI-N-PROPYLNITROSAMINE [621-64-7], N-ETHYL-N-HYDROXYETHYLNIATROSAMINE [13147-25-6], 3,2'-DIMETHYL-4-AMINO, Carcinogen: 2,2'-DIHYDROXY-DI-N-PROPYLNITROSAMINE [621-64-7], N-ETHYL-N-HYDROXYETHYLNIATROSAMINE [13147-25-6], 3,2'-DIMETHYL-4-AMINO, Dose [Inhibitor]: 1% IN DIET FOR 32 WK BEGINNING 1 WK POST LAST CARCINOGEN DOSE (STUDY DURATION: 32 WK), Target Tissue: Type of Lesion: LIVER: CARCINOMA, Dose [Carcinogen]: 1000 MG/KG BW DHPN IP 2X/3 WK, 1500 MG/KG BW EHEN IP 2X/3 WK, 75 MG/KG BW DMAB SC 3X/3 WK;, Dose [Carcinogen]: 1000 MG/KG BW DHPN IP 2X/3 WK, 1500 MG/KG BW EHEN IP 2X/3 WK, 75 MG/KG BW DMAB SC 3X/3 WK;, Promoter: NONE", "result": "6/14 (43%), 3/13 (23%), 47%, not significant"}, {"measurement": "tumour outcome (control, treated, inhibition, significance)", "setting": "Carcinogen: 2,2'-DIHYDROXY-DI-N-PROPYLNITROSAMINE [621-64-7], N-ETHYL-N-HYDROXYETHYLNIATROSAMINE [13147-25-6], 3,2'-DIMETHYL-4-AMINO, Carcinogen: 2,2'-DIHYDROXY-DI-N-PROPYLNITROSAMINE [621-64-7], N-ETHYL-N-HYDROXYETHYLNIATROSAMINE [13147-25-6], 3,2'-DIMETHYL-4-AMINO, Dose [Inhibitor]: 1% IN DIET FOR 32 WK BEGINNING 1 WK POST LAST CARCINOGEN DOSE (STUDY DURATION: 32 WK), Target Tissue: Type of Lesion: LUNG: ADENOMA, Dose [Carcinogen]: 1000 MG/KG BW DHPN IP 2X/3 WK, 1500 MG/KG BW EHEN IP 2X/3 WK, 75 MG/KG BW DMAB SC 3X/3 WK;, Dose [Carcinogen]: 1000 MG/KG BW DHPN IP 2X/3 WK, 1500 MG/KG BW EHEN IP 2X/3 WK, 75 MG/KG BW DMAB SC 3X/3 WK;, Promoter: NONE", "result": "7/14 (50%), 11/13 (85%), -70%, not significant"}, {"measurement": "tumour outcome (control, treated, inhibition, significance)", "setting": "Carcinogen: 2,2'-DIHYDROXY-DI-N-PROPYLNITROSAMINE [621-64-7], N-ETHYL-N-HYDROXYETHYLNIATROSAMINE [13147-25-6], 3,2'-DIMETHYL-4-AMINO, Carcinogen: 2,2'-DIHYDROXY-DI-N-PROPYLNITROSAMINE [621-64-7], N-ETHYL-N-HYDROXYETHYLNIATROSAMINE [13147-25-6], 3,2'-DIMETHYL-4-AMINO, Dose [Inhibitor]: 1% IN DIET FOR 32 WK BEGINNING 1 WK POST LAST CARCINOGEN DOSE (STUDY DURATION: 32 WK), Target Tissue: Type of Lesion: LUNG: CARCINOMA, Dose [Carcinogen]: 1000 MG/KG BW DHPN IP 2X/3 WK, 1500 MG/KG BW EHEN IP 2X/3 WK, 75 MG/KG BW DMAB SC 3X/3 WK;, Dose [Carcinogen]: 1000 MG/KG BW DHPN IP 2X/3 WK, 1500 MG/KG BW EHEN IP 2X/3 WK, 75 MG/KG BW DMAB SC 3X/3 WK;, Promoter: NONE", "result": "1/14 (8%), 7/13 (54%), -575%, p<0.05"}, {"measurement": "tumour outcome (control, treated, inhibition, significance)", "setting": "Carcinogen: 2,2'-DIHYDROXY-DI-N-PROPYLNITROSAMINE, 53609-64-6, N-ETHYL-N-HYDROXYETHYL- NITROSAMINE, 13147-25-6, 3,2'-DIMETHYL-4-, Carcinogen: 2,2'-DIHYDROXY-DI-N-PROPYLNITROSAMINE, 53609-64-6, N-ETHYL-N-HYDROXYETHYL- NITROSAMINE, 13147-25-6, 3,2'-DIMETHYL-4-, Dose [Inhibitor]: 0, 1% IN DIET BEGINNING 1 WK POST LAST CARCINOGEN DOSE AND CONTINUING FOR 32 WK (STUDY DURATION: 36 WK), Target Tissue: Type of Lesion: LARGE INTESTINE: ADENOMA, Dose [Carcinogen]: 1000 MG/KG IP DHPN 2X, 1500 MG/KG GAV EHEN 2X AND 75 MG/KG SC DMAB 3X GIVEN OVER THE INITIAL 3 WK PERIOD AT 3-4 D INTERV, Promoter: NONE USED", "result": "7/14 (50%), 5/13 (38%), 24%, not significant"}, {"measurement": "tumour outcome (control, treated, inhibition, significance)", "setting": "Carcinogen: 2,2'-DIHYDROXY-DI-N-PROPYLNITROSAMINE, 53609-64-6, N-ETHYL-N-HYDROXYETHYL- NITROSAMINE, 13147-25-6, 3,2'-DIMETHYL-4-, Carcinogen: 2,2'-DIHYDROXY-DI-N-PROPYLNITROSAMINE, 53609-64-6, N-ETHYL-N-HYDROXYETHYL- NITROSAMINE, 13147-25-6, 3,2'-DIMETHYL-4-, Dose [Inhibitor]: 0, 1% IN DIET BEGINNING 1 WK POST LAST CARCINOGEN DOSE AND CONTINUING FOR 32 WK (STUDY DURATION: 36 WK), Target Tissue: Type of Lesion: LARGE INTESTINE: CARCINOMA, Dose [Carcinogen]: 1000 MG/KG/ IP DHPN 2X, 1500 MG/KG GAV EHEN 2X 75 MG/KG SC DMAB 3X GIVEN OVER THE INITIAL 3 WK PERIOD AT 3-4 D INTERVALS, Promoter: NONE USED", "result": "3/14 (21%), 6/13 (46%), -119%, not calculated"}]}
